Laboratory results taken from patent US20230391817A1, “5ALPHA-HYDROXY-6BETA-[2-(1-H-IMIDAZOL-4-YL)-ETHYLAMINO]-CHOLESTAN-3BETA-OL ANALOGUES AND PHARMACEUTICAL COMPOSITIONS COMPRISING SAME FOR USE IN THE TREATMENT OF CANCER” (priority 2020, published 2023).

Molecular target: T1, Cholesterol Epoxide Hydrolase (ChEH) (Homo sapiens, UniProt Q15125+Q9UBM7)
T1 construct: endogenous in cells; host or cells: MCF-7
Experiment: Cholesterol Epoxide Hydrolase (ChEH) activity in MCF-7 cells, [14C]5,6α-EC metabolism by TLC
Assay type: cell-based
Settings: 1 μM, 24 h, [14C]5,6α-EC 0.6 μM
Text: The compounds 5,6α-epoxycholesterol (5,6α-EC) and 5,6p-epoxycholesterol (5,6p-EC) are oxysterols involved in the anticancer pharmacology of tamoxifen, a widely used antitumor drug. Both are metabolized to cholestane-3β,5α,6β-triol (CT) by the enzyme cholesterol-5,6-epoxide hydrolase (ChEH), and CT is metabolized by the enzyme HSD11B2 (11β-hydroxysteroid dehydrogenase 2) to 6-oxocholestane-3β,5α-diol (OCDO), a tumor-promoting oncosterone.
MCF-7 cells are in a cell culture medium identical to that of Example 5 and are seeded in 6-well plates at 150 000 cells per well with three wells per treatment condition. […] Tamoxifen is used as a positive control for 3α-fluoro-5α-hydroxy-6β-[2-(1H-imidazol-4-yl)ethylamino]cholestane and 5α-hydroxy-6β-[2-(1H-imidazol-4-yl)ethylamino]cholestan-3β-ol (1 μM for all molecules).
After 24 hours of treatment, the media are collected and lipid extracts are prepared from the cell pellets by extraction with 100 μL of chloroform, 400 μL of methanol, and 300 μL of water.
The lipid extracts are analyzed by thin layer chromatography (TLC) using ethyl acetate (EtOAc) as eluent. The analysis is performed with a plate reader and then by autoradiography.

T1 sequence (Q15125 whole entry): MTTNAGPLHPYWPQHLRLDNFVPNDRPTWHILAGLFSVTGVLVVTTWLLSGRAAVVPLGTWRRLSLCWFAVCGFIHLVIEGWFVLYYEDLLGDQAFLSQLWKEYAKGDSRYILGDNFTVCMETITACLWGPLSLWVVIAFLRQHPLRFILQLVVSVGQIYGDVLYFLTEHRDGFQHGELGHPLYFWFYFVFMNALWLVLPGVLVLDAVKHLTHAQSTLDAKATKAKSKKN
T1 sequence (Q9UBM7 whole entry): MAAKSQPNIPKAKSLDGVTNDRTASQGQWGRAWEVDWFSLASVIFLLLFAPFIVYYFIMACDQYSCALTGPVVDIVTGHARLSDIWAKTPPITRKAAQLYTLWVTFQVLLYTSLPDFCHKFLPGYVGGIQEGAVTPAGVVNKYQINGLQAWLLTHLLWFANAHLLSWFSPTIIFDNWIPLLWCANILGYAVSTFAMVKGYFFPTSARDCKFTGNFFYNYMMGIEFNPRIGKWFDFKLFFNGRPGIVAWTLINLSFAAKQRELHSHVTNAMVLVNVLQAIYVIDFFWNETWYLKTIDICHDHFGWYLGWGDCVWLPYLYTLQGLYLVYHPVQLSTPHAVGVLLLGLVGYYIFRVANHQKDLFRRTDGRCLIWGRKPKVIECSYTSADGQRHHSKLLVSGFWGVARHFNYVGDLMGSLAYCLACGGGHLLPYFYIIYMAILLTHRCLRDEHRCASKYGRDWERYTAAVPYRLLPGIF

CC(C)CCC[C@@H](C)[C@H]1CC[C@H]2[C@@H]3C[C@@H](NCCc4c[nH]cn4)[C@@]4(O)C[C@@H](F)CC[C@]4(C)[C@H]3CC[C@]12C [DX111, 3β-fluoro-5α-hydroxy-6β-[2-(1H-imidazol-4-yl)ethylamino]cholestane]
inhibition of ChEH activity: almost total inhibition
